{"source": "ChEMBL document CHEMBL1123003", "about": "“Synthesis and interaction of 5-(substituted-phenyl)-3-methyl-6,7-dihydropyrazolo[4,3-e] [1,4]diazepin-8(7H)-ones with benzodiazepine receptors in rat cerebral cortex” (J Med Chem, 1985)", "note": "pIC50: −log10 of the molar value.", "data": [{"target": "GABA-A receptor; anion channel", "test": "Displacement of [3H]flunitrazepam from GABA-A benzodiazepine receptor in synaptic membranes of rat cerebral cortex", "assay_type": "cell membranes", "values": [{"smiles": "Cc1n[nH]c2c1N=C(c1ccc(-c3ccccc3)cc1)CNC2=O", "pIC50": "< 4.00"}, {"smiles": "Cc1n[nH]c2c1N=C(c1ccc([N+](=O)[O-])cc1)CNC2=O", "pIC50": 4.52}, {"smiles": "Cc1n[nH]c2c1N=C(c1ccccc1)CNC2=O", "pIC50": 5.36}, {"smiles": "Cc1n[nH]c2c1N=C(c1ccc(Cl)cc1)CNC2=O", "pIC50": 5.00}, {"smiles": "COc1ccc(C2=Nc3c(C)n[nH]c3C(=O)NC2)cc1", "pIC50": 4.33}, {"smiles": "CCn1nc(C)c2c1C(c1ccccc1)=NCC(=O)N2", "note": "[RIPAZEPAM]", "pIC50": 6.17}, {"smiles": "CNC1=Nc2ccc(Cl)cc2C(c2ccccc2)=[N+]([O-])C1", "note": "[CHLORDIAZEPOXIDE]", "pIC50": 6.04}, {"smiles": "Cc1n[nH]c2c1N=C(c1ccc(Br)cc1)CNC2=O", "pIC50": 4.65}]}]}
